Read-outs that look alike come from different tables or passages of the source.
Tests used:
[1] = system: P. falciparum, strain IPC 3445; test: Growth inhibition of ART resistant field strain; assay type: cell-based; settings: Plasmodium falciparum, 72 h, read-out: IC50, ART resistant strain IPC 3445
Procedure: Plasmodium falciparum (P. falciparum), strain IPC 3445 was isolated in 2010 from the blood of a human patient with malaria in Pailin province, western Cambodia. Parasites were grown in the lab and tested with different concentrations of the Calxinin and DHA (100 μM-90 nM) for 72 hr incubations.

[2] = In vitro cytotoxicity, HepG2; assay type: cell-based; settings: human, HepG2 cells; read-out: CC50 (50% cell toxicity)
[3] = In vitro cytotoxicity, HEK293 (Alamar Blue); assay type: cell-based; settings: human, HEK293 cells; read-out: CC50 (50% cell toxicity)
Procedure: In addition, the cell viability of Huh 7 and HEK293 cells was evaluated post drug exposure using the Alamar Blue assay [Riss, Terry L., et al. “Cell viability assays.” Assay Guidance Manual [Intenet]. Eli Lilly & Company and the National Centre for Advancing Translational Sciences, 2016]. Cells ([…]) were exposed to varying concentrations of test compounds, for 24 hours in 96-well plate format along with 10/100 μL Alamar Blue solution (10×=4.8 mM in phosphate buffer) per well. […] Results from the cytotoxicity assays were expressed as CC50 at which 50% of the cells died/metabolically slowed down due to drug exposure compared to the non-treated and vehicular control.
The cytotoxicity of Compound I was tested by exposing peripheral blood mononuclear cells (PBMCs) to drug concentrations corresponding to averages of both Pf3D7 and PfDd2 IC50 values. This was intended to establish whether the observed antiparasitic effects of the compounds were due to non-specific inhibitory activity. […] The IC50 required for killing the parasite is <90 nM. Therefore, in order to be toxic for human cells we have to use over 650 fold concentration.

[4] = system: P. berghei sporozoites in HepG2 cells; test: Liver stage infection in HepG2 cells, qPCR of 18SrRNA; assay type: cell-based, Plasmodium berghei; settings: for IC50: read-out: in-vitro liver stage IC50
Text: Liver stage infection in HepG2 cells: Salivary glands of Anopheles stephensi mosquitoes infected with green fluorescent protein (GFP)-expressing P. berghei ANKA (Insectary at National Institute of Immunology, New Delhi, India) were dissected out. Sporozoites were perched in complete medium (Dulbecco's Modified Eagle Medium (DMEM)) with 10% fetal bovine serum (FBS), 3% penicillin-streptomycin (P/S)), and allowed to infect HepG2 cells. The cells were already treated with Calxinin at various concentrations (0.1 μM, 1 μM and 10 μM). The plate was centrifuged at 3000 rpm for 5 minutes to ensure the sporozoites settled down in the plate, and then placed in the incubation at 37° C. for 3 hours. Afterwards, media was replaced with pre-warmed medium (DMEM, 10% FBS, 3% P/S, and 0.1% Fungizone) supplemented with dimethyl sulfoxide (DMSO), and Calxinin at indicated concentrations. After two days, the cells were treated with Trizol and […] at −80° C. RNA isolation followed by reverse transcription polymerase chain reaction (RTPCR) was done to estimate the parasite load in the infected cells.
Compound I was tested in vitro against Plasmodium liver stage parasites. HepG2 cells, a human hepatocyte cell line, were infected with Plasmodium berghie sporozoites (mosquito infective forms of malaria). One set of cells was treated with 0.4, 2.0 and 10.0 micromolar concentration of inhibitor Compound I, and the other set was left untreated. Sporozoite infection time was considered as zero time. Twenty-four hours after infection the culture media was refreshed and the inhibitors were replenished. After forty-eight hours, total cells were harvested and total RNA was extracted by the Trizol™ method. RNA was converted into cDNA and realtime PCR was performed using the parasite 18SrRNA primers. This determined the liver stage parasite burden, which was then converted into percent inhibition by comparing with the untreated set.
Liver schizont stages are the first stage of human infection after injection of sporozoites by mosquitoes. The activity of compounds against this stage offers the important part of the antimalarial therapy, chemoprotection. To evaluate the efficacy of Compound I against liver stage parasites, HepG2 cells were infected with P. berghei sporozoites, in triplicates, and dosed with 0.1, 1, 10 μM of Compound I dissolved in 1% DMSO. The parasite load was quantified in control and Compound I-treated cells by quantitative PCR (qPCR) using parasite specific 18SrRNA primers. […] Inhibitory effect decreases up to 61% while treating cells with 10 μM due to precipitation of compound at higher concentration (FIG. 3). […] The liver stage activity of Compound I is much higher over the current treatments, atovaquone (ATQ) in culture.

[5] = system: human platelets; test: Agonist-induced platelet aggregation; assay type: cell-based; settings: up to 20 μg/ml
Procedure: Studies were performed to assess the effect of Calxinin on hemostatic parameters using plasmatic and whole blood assays.

[6] = system: parasitized RBC; test: Calcium levels in parasitized RBC; assay type: cell-based; settings: 10 μM, within a few seconds, preliminary
Procedure: No difference in the activity of the Calcium T Channel was observed under control conditions and with increasing concentrations of the Calxinin molecule, there is no difference in the amplitude of the calcium channel currents, nor in the dependence with the membrane potential of calcium channel activation up to 1 microMolar, that is […] higher than the IC50 to kill the parasite. Human T-type calcium channel currents were measured with the Patch clamp on the “whole cell” configuration in HEK cells constitutively expressing human T type Calcium channel. […] As shown, in FIG. 9 no difference in the amplitude of the calcium channel currents, nor in the dependence with the membrane potential of calcium channel activation even at 11 times the IC50 concentration. Preliminary results of parasitized RBC treated with CQ (I0 μM)+DMSO (negative control) and treated Compound I (10 μM, data not shown) were generated.

**Q.** For NC(Cc1ccccc1)C(O)CN1CCN(Cc2ccc(C(F)(F)F)cc2)CC1 (stereo not shown) [Compound I], which IC50 [1] is on record?
**A.** 0.0926 µM

**Q.** What about the CC50 [2] of the same compound?
**A.** 1350 µM

**Q.** What about the CC50 at 24 h [3] of the same compound?
**A.** 60.2 µM

**Q.** What about the inhibition at 0.1 µM ([4]; Plasmodium berghei, HepG2, 0.1 μM, read-out: inhibition of liver stage parasite load) of the same compound?
**A.** ~60%

**Q.** What about the inhibition at 1 µM ([4]; Plasmodium berghei, HepG2, 1 μM, read-out: inhibition of liver stage parasite load) of the same compound?
**A.** ~88%

**Q.** And the inhibition at 10 µM ([4]; Plasmodium berghei, HepG2, 10 μM, precipitation of compound, read-out: inhibition of liver stage parasite load)?
**A.** ≤ 61%

**Q.** And the IC50 ([4]; Plasmodium berghei, HepG2)?
**A.** 0.079 µM

**Q.** And the IC50 ([4]; listed as Calxinin)?
**A.** 0.065 µM

**Q.** What about the “agonist-induced aggregation of human platelets” value [5] of the same compound?
**A.** did not alter agonist-induced aggregation of human platelets

**Q.** And the “calcium levels of packed red blood cells (pRBCs)” value [6]?
**A.** changes in the calcium levels
